Experiments:
[1] = tested on: KK-Ay mouse (obese diabetic mice); details: 100 mg/kg body weight, not normal or lean diabetic mice; cited from earlier work
[2] = tested on: patients with dyslipidemia; assay: Clinical study: DHASCO capsules co-administered with statin medication for 12 months; type: in vivo, human; details: patients treated with DHA
Text: Thus, the present inventors have discovered that DHA has a long term effect (as shown by reduction in glycosylated hemoglobin levels reflecting longer term glucose control integrated over 2-3 months). Finally, the inventors have discovered that therapy using DHA-containing oils can be effective at DHA levels that are not excessive (e.g., at levels which minimize side effects associated with fatty acid ingestion).
In a clinical study, DHASCO capsules (which contained DHA as a triglyceride oil extracted from Crypthecodinium cohnii cells, obtained from Martek Biosciences Corp., Columbia, Md.) were co-administered with statin medication to patients with dyslipidemia. Hyperlipidemic patients already being treated with a stable dose of a statin medication but still failing to meet NCEP guidelines for LDL-cholesterol or triglycerides were treated with either 200 or 1000 mg of DHA daily for 12 months. HbA1c levels (glycosylated hemoglobin, a marker of glycemic control) were measured in plasma at baseline and after 8 or 12 months of treatment.
Reduction in CRP of this extent is clinically significant, and may be correlated with a benefit of reduced risk of Type II diabetes onset, independent of other Type II risk factors.

[3] = tested on: subjects with HDL levels below the sex-specific median; assay: Randomized, double-blind, controlled trial of DHASCO-S capsules, six weeks; metabolic disturbance score, serum lipids, LDL particles; type: in vivo, human; details: 1.52 g DHA per day
Text: DHASCO-S capsules (which contained DHA as a triglyceride oil extracted from Schizochytrium sp. cells, obtained from Martek Biosciences Corp., Columbia, Md.) were used in the following study. Subjects (n=57) were enrolled in a randomized, double-blind, controlled trial to assess the response to 1.52 g of DHA per day for six weeks. Subjects were aged 21-80 and had HDL levels below the sex-specific median (a criterion for metabolic syndrome). The average triglyceride (TG) level at the beginning of the study was 169-179 mg/dl (metabolic syndrome criterion >150 mg/dL). The average distribution of LDL particles in this population was 44-50% small dense particles. Small dense particles are another lipid hallmark of metabolic syndrome. […] The average waist circumference for men and women combined was about 100+/−2.5 cm (criterion for metabolic syndrome is about 88 cm for women and about 102 cm for men). The average blood pressure in the study was normotensive at 120/77 mmHg.
The metabolic disturbance score was calculated to assess the relationship between independent variables and the criterion related to metabolic syndrome. The score is a composite of values for selected risk factors including: serum triglycerides, serum HDL cholesterol, systolic blood pressure, waist circumference, and fasting serum glucose. The following formula was utilized to calculate the metabolic score, where Z=the z score, i.e., the number of standard deviations above or below the mean value for each variable (Micciolo 1991; Maki 1994): Metabolic Disturbance Score=Z for triglycerides+Z for systolic blood pressure+Z for waist circumference+Z for glucose−Z for HDL cholesterol. Since triglyceride values were not normally distributed, a natural log-transformation was performed to normalize the distribution prior to calculating the Z score.
Additionally, pre-specified subgroup analyses were performed for serum lipid and metabolic disturbance score values. The triglyceride subgroups were split at the median baseline value (170 mg/dL). A Body Mass Index (BMI) of 30 kg/m^2 was chosen as the cut-point for BMI subgroups (BMI<30 kg/m2 and BMI≧30 kg/m^2) because persons with a BMI≧30 kg/M^2 are considered obese (Expert Panel 1998).

patients = details: cited from earlier work

CC/C=C\C/C=C\C/C=C\C/C=C\C/C=C\C/C=C\CCC(=O)OCC [DHA ethyl ester]
blood glucose [1]: reduced
insulin sensitivity [1]: enhanced
plasma triglycerides [1]: reduced

CC/C=C\C/C=C\C/C=C\C/C=C\C/C=C\C/C=C\CCC(=O)O [DHA, docosahexaenoic acid]
overall reduction in CRP levels [2]: 15%
increase in large LDL particles from baseline to end of treatment ([3]; P=0.028 vs control): 32.4%
change in small LDL particles from baseline ([3]; P=0.191 vs control): −23.2%
change in TG from baseline ([3]; p=0.001 vs control): −25.4%
increase in HDL ([3]; p=0.102 vs control): +9.0%
change from baseline in metabolic disturbance score, subgroup ([3]; subjects with baseline triglycerides >=170 mg/dL, p=0.001 vs control): −1.16

CN(C)C(=N)N=C(N)N [Metformin]
patients with gastrointestinal reactions (patients; fraction of patients): about a third
lactic acidosis cases that are fatal (patients; rare reaction): about 50%
